Results reported in patent US8563597B2, “Fused tricyclic ether carbamates and their use” (priority 2010, dated 2013).

How the values were obtained:
[1] = biological target: HIV-1 protease (Human immunodeficiency virus type 1 group M subtype B, UniProt P04585); experiment: Enzymatic inhibitory activity (Ki) against HIV-1 protease; type: biochemical
[2] = system: HIV-1LAI; experiment: Antiviral activity against HIV-1LAI; type: cell-based; conditions: Human immunodeficiency virus 1
[3] = system: HIV-1ERS104pre (wild-type: X4); experiment: Antiviral activity against clinical isolates in PHA-PBMs (p24 Gag production); type: cell-based
Description: (§1) Relative Antiviral activity of 33, and 34 against multi-drug resistant clinical isolates in PHA-PBMs

[4] = system: HIV-1MDR/B (X4); experiment: Antiviral activity against multi-drug resistant clinical isolates in PHA-PBMs (p24 Gag production); type: cell-based
Description: as §1

[5] = system: HIV-1MDR/C (X4); experiment: as above; type: cell-based
Description: as §1

[6] = system: HIV-1MDR/G (X4); experiment: as above; type: cell-based
Description: as §1

[7] = system: HIV-1MDR/JSL (R5); experiment: as above; type: cell-based
Description: as §1

[8] = system: HIV-1MDR/MM (R5); experiment: as above; type: cell-based
Description: as §1

[9] = system: HIV-1MDR/TM (X4); experiment: as above; type: cell-based
Description: as §1

[10] = system: highly PI-resistant clinical HIV-1 variants; conditions: in vitro; result in words
Description: In another embodiment, novel oxatricyclic [3(R), 3aS, 4aS, 7aR, 8aS] and [3(R), 3aS, 4aR, 7aS, 8aS]-ligands were designed, synthesized, and incorporated into the (R)-hydroxyethyl sulfonamide isostere. […] The antiviral activity of 33 against a panel of highly PI-resistant clinical HIV-1 variants in vitro was measured.

SMILES: COc1ccc(S(=O)(=O)N(CC(C)C)C[C@@H](O)[C@H](Cc2ccccc2)NC(=O)OC2CCCC3OC4OCCCC4C23)cc1 (stereo partly shown)
- Ki [1]: < 1 nM

SMILES: COc1ccc(S(=O)(=O)N(CC(C)C)C[C@@H](O)[C@H](Cc2ccccc2)NC(=O)O[C@H]2CCCC3O[C@H]4OCC[C@H]4C32)cc1 (stereo partly shown)
- Ki [1]: < 0.1 nM
- IC50 [2]: < 10 nM

SMILES: COc1ccc(S(=O)(=O)N(CC(C)C)C[C@@H](O)[C@H](Cc2ccccc2)NC(=O)O[C@@H]2C[C@@H]3OC4OCCCC4[C@@H]3C2)cc1 (stereo partly shown)
- Ki [1]: < 0.1 nM

SMILES: CC(C)CN(C[C@@H](O)[C@H](Cc1ccccc1)NC(=O)O[C@H]1CO[C@H]2O[C@@H]3OCC[C@@H]3[C@H]21)S(=O)(=O)c1ccc(N)cc1
- Ki [1]: < 0.1 nM

SMILES: COc1ccc(S(=O)(=O)N(CC(C)C)C[C@@H](O)[C@H](Cc2ccccc2)NC(=O)OC2CS(=O)(=O)CC3OC4OCCC4C23)cc1 (stereo partly shown)
- Ki [1]: < 1 nM

SMILES: COc1ccc(S(=O)(=O)N(CC(C)C)C[C@@H](O)[C@H](Cc2ccccc2)NC(=O)OC2CS(=O)(=O)CC3OC4OCCCC4C23)cc1 (stereo partly shown)
- Ki [1]: > 10 nM

SMILES: CC(C)CN(C[C@@H](O)[C@H](Cc1ccccc1)NC(=O)O[C@@H]1C[C@@H]2[C@H]3COC[C@H]3O[C@@H]2C1)S(=O)(=O)c1ccc(N)cc1
- Ki [1]: < 0.1 nM

SMILES: CC(C)CN(C[C@@H](O)[C@H](Cc1ccccc1)NC(=O)O[C@H]1CO[C@H]2O[C@@H]3COC[C@@H]3[C@H]21)S(=O)(=O)c1ccc(N)cc1
- Ki [1]: < 0.1 nM

SMILES: COc1ccc(S(=O)(=O)N(CC(C)C)C[C@@H](O)[C@H](Cc2ccccc2)NC(=O)O[C@H]2CO[C@H]3O[C@@H]4CCO[C@@H]4[C@H]32)cc1
- Ki [1]: < 0.1 nM

SMILES: COc1ccc(S(=O)(=O)N(CC(C)C)C[C@@H](O)[C@H](Cc2ccccc2)NC(=O)O[C@H]2CO[C@H]3O[C@@H]4COC[C@@H]4[C@H]32)cc1
- Ki [1]: < 0.1 nM

SMILES: CC(C)CN(C[C@@H](O)[C@H](Cc1ccccc1)NC(=O)O[C@@H]1C[C@@H]2[C@H]3OCC[C@H]3O[C@@H]2C1)S(=O)(=O)c1ccc(N)cc1
- Ki [1]: > 10 nM

SMILES: CC(C)CN(C[C@@H](O)[C@H](Cc1ccccc1)NC(=O)O[C@H]1CO[C@H]2O[C@@H]3CCO[C@@H]3[C@H]21)S(=O)(=O)c1ccc(N)cc1
- Ki [1]: < 0.1 nM

SMILES: CC(C)CN(C[C@@H](O)[C@H](Cc1ccccc1)NC(=O)O[C@H]1CCOC1)S(=O)(=O)c1ccc(N)cc1 [APV, Amprenavir, reference compound]
- fold changes of IC50 values compared to wild-type HIV-1ERS104pre [3]: 1 fold
- fold changes of IC50 values compared to wild-type HIV-1ERS104pre [4]: 16 fold
- fold changes of IC50 values compared to wild-type HIV-1ERS104pre [5]: 11 fold
- fold changes of IC50 values compared to wild-type HIV-1ERS104pre [6]: 15 fold
- fold changes of IC50 values compared to wild-type HIV-1ERS104pre [7]: 13 fold
- fold changes of IC50 values compared to wild-type HIV-1ERS104pre [8]: 9 fold
- fold changes of IC50 values compared to wild-type HIV-1ERS104pre [9]: 15 fold

SMILES: CC(C)CN(C[C@@H](O)[C@H](Cc1ccccc1)NC(=O)O[C@H]1CO[C@H]2OCC[C@H]21)S(=O)(=O)c1ccc(N)cc1 [DRV, Darunavir, reference compound]
- fold changes of IC50 values compared to wild-type HIV-1ERS104pre [3]: 1 fold
- fold changes of IC50 values compared to wild-type HIV-1ERS104pre [4]: 6 fold
- fold changes of IC50 values compared to wild-type HIV-1ERS104pre [5]: 2 fold
- fold changes of IC50 values compared to wild-type HIV-1ERS104pre [6]: 6 fold
- fold changes of IC50 values compared to wild-type HIV-1ERS104pre [7]: 5 fold
- fold changes of IC50 values compared to wild-type HIV-1ERS104pre [8]: 3 fold
- fold changes of IC50 values compared to wild-type HIV-1ERS104pre [9]: 6 fold

SMILES: COc1ccc(S(=O)(=O)N(CC(C)C)C[C@@H](O)[C@H](Cc2ccccc2)NC(=O)O[C@H]2CO[C@H]3O[C@H]4OCC[C@H]4[C@H]32)cc1 [Inhibitor 31]
- IC50 [2]: < 1000 nM

SMILES: COc1ccc(S(=O)(=O)N(CC(C)C)C[C@@H](O)[C@H](Cc2ccccc2)NC(=O)O[C@@H]2CO[C@@H]3O[C@@H]4OCC[C@@H]4[C@@H]32)cc1 [Inhibitor 32]
- IC50 [2]: < 10 nM

SMILES: COc1ccc(S(=O)(=O)N(CC(C)C)C[C@@H](O)[C@H](Cc2ccccc2)NC(=O)O[C@H]2CO[C@H]3O[C@@H]4OCC[C@@H]4[C@H]32)cc1 [Inhibitor 33]
- Ki [1]: < 0.1 nM
- IC50 [2]: < 10 nM
- fold changes of IC50 values compared to wild-type HIV-1ERS104pre [3]: 1 fold
- fold changes of IC50 values compared to wild-type HIV-1ERS104pre [4]: 7 fold
- fold changes of IC50 values compared to wild-type HIV-1ERS104pre [5]: 2 fold
- fold changes of IC50 values compared to wild-type HIV-1ERS104pre [6]: 5 fold
- fold changes of IC50 values compared to wild-type HIV-1ERS104pre [7]: 5 fold
- fold changes of IC50 values compared to wild-type HIV-1ERS104pre [8]: 5 fold
- fold changes of IC50 values compared to wild-type HIV-1ERS104pre [9]: 4 fold
- antiviral activity against a panel of highly PI-resistant clinical HIV-1 variants [10]: effectively suppressed all tested clinical HIV-1 variants

SMILES: COc1ccc(S(=O)(=O)N(CC(C)C)C[C@@H](O)[C@H](Cc2ccccc2)NC(=O)O[C@@H]2CO[C@@H]3O[C@H]4OCC[C@H]4[C@@H]32)cc1 [Inhibitor 34]
- Ki [1]: < 10 nM
- IC50 [2]: < 1000 nM
- fold changes of IC50 values compared to wild-type HIV-1ERS104pre [3]: 1 fold
- fold changes of IC50 values compared to wild-type HIV-1ERS104pre [4]: 2 fold
- fold changes of IC50 values compared to wild-type HIV-1ERS104pre [5]: 1 fold
- fold changes of IC50 values compared to wild-type HIV-1ERS104pre [6]: 2 fold
- fold changes of IC50 values compared to wild-type HIV-1ERS104pre [7]: >2 fold
- fold changes of IC50 values compared to wild-type HIV-1ERS104pre [8]: 2 fold
- fold changes of IC50 values compared to wild-type HIV-1ERS104pre [9]: 2 fold

SMILES: COc1ccc(S(=O)(=O)N(CC(C)C)C[C@@H](O)[C@H](Cc2ccccc2)NC(=O)O[C@H]2CO[C@H]3C[C@H]4OCC[C@H]4[C@H]32)cc1 [Inhibitor 35]
- Ki [1]: < 10 nM
- IC50 [2]: < 1000 nM

SMILES: COc1ccc(S(=O)(=O)N(CC(C)C)C[C@@H](O)[C@H](Cc2ccccc2)NC(=O)O[C@H]2CO[C@H]3C[C@@H]4OCC[C@@H]4[C@H]32)cc1 [Inhibitor 36]
- Ki [1]: < 10 nM
- IC50 [2]: > 1000 nM
